{"source": "patent US11311598B2", "about": "“Peptides and analogs for use in the treatment of oral mucositis” (Soligenix, Inc., priority 2013, dated 2022)", "key": {"cynomolgus monkeys": {"system": "cynomolgus monkeys", "experiment": "cynomolgus monkey IV toxicity studies (pilot, GLP 14-day)", "format": "in vivo", "conditions": "for occurrence of acute toxicity (respiratory depression): cynomolgus monkey", "procedure": "Two pilot and 2 definitive repeat-dose toxicity studies were conducted with RIVPA (SEQ ID NO. 5) in mice and cynomolgus monkeys using the intravenous (IV; slow bolus) route of administration. All studies were conducted by LAB Research Inc., Canada.\nThese resolved within a few minutes without detectable residual effects.\nRIVPA (SEQ ID NO. 5) at 20, 80, 160 mg/kg/day was given IV to cynomolgus monkeys for 14 days. […] In all cases, these clinical signs resolved within a few minutes. […] A dose level of 80 mg/kg/day was considered to be the No-Observed-Adverse-Effect-Level (NOAEL) for this study.\nOverall, the NOAEL is considered to be 80 mg/kg/day for cynomolgus monkeys since transient clinical signs were limited to a single study and occurred in only 2 instances of the 98 administrations of the drug at this dose level.\nThe observed respiratory depression occurred at different dose levels in different species, and was not predicted by allometric scaling. In particular, the mouse appeared to be the most sensitive species with acute toxicity occurring rarely at 60 mg/kg (HED: ^˜5 mg/kg) and commonly at 90 mg/kg (HED: ^˜7 mg/kg). In contrast in NHP (cynomologus monkey), acute toxicity occurred occasionally at 160 mg/kg (HED: ^˜50 mg/kg) and consistently at 240 mg/kg (HED: ^˜78 mg/kg)."}, "healthy volunteers": {"system": "healthy volunteers", "experiment": "Phase 1 study in healthy volunteers, safety (SAD and MAD)", "format": "in vivo, human", "excerpt": "Clinical experience with RIVPA (SEQ ID NO. 5) was obtained in a Phase 1 Study. The primary objective of the study was to determine the maximum tolerated dose (MTD) of single and repeat ascending doses of RIVPA (SEQ ID NO. 5) injectable solution following IV administration in healthy volunteers. The secondary objectives of this study included the assessment of the dose limiting toxicity (DLT), safety, PK and pharmacodynamic (PD) profiles of RIVPA (SEQ ID NO. 5) after single and repeated ascending IV doses of RIVPA (SEQ ID NO. 5). The study was divided into 2 phases: a single-ascending dose (SAD) phase and a multiple-ascending dose (MAD) phase.\nSingle IV doses of RIVPA (SEQ ID NO. 5) were well tolerated up to the maximum tested (8 mg/kg) and daily IV doses were well tolerated up to the maximum tested (6.5 mg/kg for 7 days).\nThe most frequently reported TEAEs (observed in more than one subject who received RIVPA (SEQ ID NO. 5) and in a higher proportion (%) than placebo subjects) were study treatment procedure-related events (General Disorders and Administration Site Conditions) such as vessel puncture site haematoma, vessel puncture site reaction and vessel puncture site pain. All vessel puncture-related events were mild and determined to be unrelated to study treatment by the QI. The second most frequently reported TEAEs were Nervous System Disorders, specifically headache and dizziness; these events were only mild to moderate. All other TEAEs were reported by only 1 subject at any given dose level (maximum of 3 dose levels).\nThe incidence of “possibly-related” events was also higher in the 2 highest dose levels. However, due to the small sample sizes (4 subjects received active treatment in each cohort), it was not possible to conclude whether the results definitely represented a dose-response. The majority of the TEAEs were not related to study treatment and were mild in severity with only one event reported as moderate. The most frequently reported TEAEs for subjects who received RIVPA (SEQ ID NO. 5) were General Disorders and Administration Site Conditions (i.e., procedure-related events) such as vessel puncture site haematoma, vessel puncture site reaction, and vessel puncture site pain. All vessel puncture-related events were mild and judged to be unrelated to treatment. Increased alanine aminotransferase (ALT) and back pain were reported by 3 (15.0%) subjects who received RIVPA (SEQ ID NO. 5) and these events were observed by only one (10.0%) subject who received the placebo."}, "[1]": {"conditions": "multiple ascending dose phase, subjects who received RIVPA"}}, "note": "Where no end group is shown, it is not given here."}
{"substance": "RIVPA-NH2 [RIVPA (SEQ ID NO. 5), RIVPA]", "values": [{"measurement": "HED of acutely toxic dose", "setting": "cynomolgus monkeys; NHP 160 mg/kg", "value": "~50", "unit": "mg/kg"}, {"measurement": "HED of acutely toxic dose", "setting": "cynomolgus monkeys; NHP 240 mg/kg", "value": "~78", "unit": "mg/kg"}, {"measurement": "immune-related organ weights, histopathology, hematology and clinical chemistry", "setting": "cynomolgus monkeys; NHP 14-day toxicity study", "value": "no changes were observed"}, {"measurement": "clinical signs", "setting": "cynomolgus monkeys; NHP pilot studies, 90 (1 animal), 180 (both animals) and 220 (1 animal) mg/kg, during and shortly after dosing", "value": "mild clinical signs"}, {"measurement": "T-cell, B-cell or NK-cell counts", "setting": "cynomolgus monkeys; NHP, after 14 days of intravenous dosing", "value": "no effect"}, {"measurement": "occurrence of acute toxicity (respiratory depression)", "setting": "cynomolgus monkeys; 160 mg/kg", "value": "occasionally"}, {"measurement": "occurrence of acute toxicity (respiratory depression)", "setting": "cynomolgus monkeys; 240 mg/kg", "value": "consistently"}, {"measurement": "clinical signs", "setting": "cynomolgus monkeys; cynomolgus monkeys, 160 mg/kg/day IV for 14 days", "value": "Transient decreased activity and partially closed eyes"}, {"measurement": "toxicity", "setting": "cynomolgus monkeys; cynomolgus monkeys, 20 and 80 mg/kg/day IV for 14 days", "value": "did not result in any evidence of toxicity"}, {"measurement": "vital sign measurements, clinical laboratory or ECG results versus placebo", "setting": "healthy volunteers; Phase 1", "value": "No safety concerns or significant differences"}, {"measurement": "deaths and serious Adverse Events", "setting": "healthy volunteers; Phase 1, SAD and MAD", "value": "no deaths and no clinically significant, severe, or serious Adverse Events"}, {"measurement": "dose limiting toxicities (DLTs)", "setting": "healthy volunteers; Phase 1, SAD and MAD", "value": "no dose limiting toxicities"}, {"measurement": "MTD", "setting": "healthy volunteers; either phase of the trial", "value": "not reached"}, {"measurement": "daily IV doses well tolerated up to the maximum tested", "setting": "healthy volunteers; healthy volunteers, daily for 7 days", "value": "≤ 6.5", "unit": "mg/kg"}, {"measurement": "single IV doses well tolerated up to the maximum tested", "setting": "healthy volunteers; healthy volunteers, single-ascending dose phase", "value": "≤ 8", "unit": "mg/kg"}, {"measurement": "incidence of TEAEs", "setting": "healthy volunteers; multiple ascending dose phase, 4.5 and 6.5 mg/kg/day", "value": "highest incidence"}, {"measurement": "Increased alanine aminotransferase (ALT)", "setting": "healthy volunteers; [1]", "value": "3 (15.0%) subjects"}, {"measurement": "back pain", "setting": "healthy volunteers; [1]", "value": "3 (15.0%) subjects"}, {"measurement": "incidence of TEAEs", "setting": "healthy volunteers; single ascending dose phase", "value": "not dose-related"}]}
